In patent publication US12570648B2, “6,7-dihydro-5H-pyrido[2,3-c]pyridazine derivatives and related compounds as Bcl-xL protein inhibitors and pro-apoptotic agents for treating cancer” (LES LABORATOIRES SERVIER, priority 2019, dated 2026):

How the values were obtained:
[1] = target: His-His-(EK)-hsBCLXL(2-197)[N197C] (Homo sapiens (Human), UniProt Q07817, N197C); assay: Fluorescence quenching assay; format: binding; conditions: 1 nM Cy5-labelled protein, 400 nM PUMA peptide, 2 hours at 23° C.; KI determined from IC50
Method in brief: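 Cy5-labelled BCL-xL (1 nM) with TQ5WS quencher-labelled PUMA peptide (400 nM); displacement by compound (11-point dilution) raises fluorescence. Buffer 10 mM HEPES, 150 mM NaCl, 0.05% Tween 20, pH 7.4, 5% DMSO; 2 h at 23° C, Ex 620/Em 680 nm. Ki derived from IC50.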

[2] = test system: H146 cells; assay: H146 cell viability using MTT assay; format: cell-based; conditions: Homo sapiens, NCI-H146, 48 h exposure
Experimental: MTT colorimetric assay is based on the mitochondrial reduction of tetrazolium salt by living cells. The viable cell number is proportional to the production of formazan salts, which can be read spectrophotometrically at 540 nm.
MOLT-4 and H146 cells were purchased from ATCC and cultivated in RPMI 1640 supplemented with 10% heat inactivated fetal bovine serum, penicillin (100 IU/ml), streptomycin (100 μg/ml) and L-glutamine (2 mM). Cells were cultured at 37° C. in a humidified atmosphere containing 5% CO2. Cells were seeded in 96 microwell plates (150p per well) and exposed to the compounds for 48 h (3.16 fold serially diluted; 9 concentrations each, triplicates). At the end of incubation time, 15 μL of MTT solution (5 mg/ml) were added per well and the cells were incubated for another 4 h. Then, 100 μL of 10% Sodium Dodecyl Sulfate (SDS)/HCl 10 mM were added per well and the plate was incubated overnight, before measurement of optical density at 540 nm. IC50s were calculated using standard four-parametric curve fitting.

[3] = test system: MOLT-4 cells; assay: MOLT-4 cell viability using MTT assay; format: cell-based; conditions: Homo sapiens, MOLT-4, 48 h, 48 h exposure
Experimental: MTT colorimetric assay is based on the mitochondrial reduction of tetrazolium salt by living cells.
Cells were cultured at 37° C. in a humidified atmosphere containing 5% CO2. […] At the end of incubation time, 15 μL of MTT solution (5 mg/ml) were added per well and the cells were incubated for another 4 h. […] IC50s were calculated using standard four-parametric curve fitting.

Chain of His-His-(EK)-hsBCLXL(2-197)[N197C] (Q07817 2-197 N197C): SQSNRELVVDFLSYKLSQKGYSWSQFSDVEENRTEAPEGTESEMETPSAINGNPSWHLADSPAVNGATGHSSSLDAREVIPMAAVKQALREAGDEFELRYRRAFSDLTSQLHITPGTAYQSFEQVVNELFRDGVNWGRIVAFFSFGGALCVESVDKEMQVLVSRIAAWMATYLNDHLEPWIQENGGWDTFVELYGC

Row | Structure (SMILES) | Ki [1] | IC50 [2] | IC50 [3]
1 | Cc1c(Nc2nc3ccccc3s2)nnc2c1CCCN2c1nc(C(=O)O)c(CCCOc2ccc(CCN(C)C)cc2F)s1 [Example 53, 2-{3-[(1,3-Benzothiazol-2-yl)amino]-4-methyl-5H,6H,7H,8H-pyrido[2,3-c]pyridazin-8-yl}-5-(3-{4-[2-(dimethylamino)ethyl]-2-fluorophenoxy}propyl)-1,3-thiazole-4-carboxylic acid] | 0.0066 nM | 14.9 nM | 9.74 nM
2 | Cc1c(Nc2nc3ccccc3s2)nnc2c1CCCN2c1nc(C(=O)O)c(CCCOc2ccc(C#CCNCC[N+](C)(C)CCCS(=O)(=O)[O-])cc2F)s1 [Example 54, 3-[2-[3-[4-[3-[2-[3-(1,3-Benzothiazol-2-ylamino)-4-methyl-6,7-dihydro-5H-pyrido[2,3-c]pyridazin-8-yl]-4-carboxy-thiazol-5-yl]propoxy]-3-fluoro-phenyl]prop-2-ynylamino]ethyl-dimethyl-ammonio]propane-1-sulfonate] | 0.0012 nM | 595 nM | 47.2 nM
3 | Cc1c(Nc2nc3ccccc3s2)nnc2c1CCCN2c1nc(C(=O)O)c(CCCOc2ccc(C#CCN3CCCC(O)C3)cc2F)s1 (stereo not drawn) [Example 55, 2-[3-(1,3-Benzothiazol-2-ylamino)-4-methyl-6,7-dihydro-5H-pyrido[2,3-c]pyridazin-8-yl]-5-[3-[2-fluoro-4-[3-(3-hydroxy-1-piperidyl)prop-1-ynyl]phenoxy]propyl]thiazole-4-carboxylic acid] | 0.0092 nM | 5.65 nM | 0.949 nM
4 | Cc1c(Nc2nc3ccccc3s2)nnc2c1CCCN2c1nc(C(=O)O)c(CCCOc2ccc(C#CCN3C[C@H]4C[C@H]4C3)cc2F)s1 [Example 56, 5-[3-[4-[3-[(1S,5R)-3-Azabicyclo[3.1.0]hexan-3-yl]prop-1-ynyl]-2-fluoro-phenoxy]propyl]-2-[3-(1,3-benzothiazol-2-ylamino)-4-methyl-6,7-dihydro-5H-pyrido[2,3-c]pyridazin-8-yl]thiazole-4-carboxylic acid] | 0.049 nM | 12.9 nM | 1.46 nM
5 | Cc1c(Nc2nc3ccccc3s2)nnc2c1CCCN2c1nc(C(=O)O)c(CCCOc2ccc(C#CCN3CCC(N4CCCCC4)CC3)cc2F)s1 [Example 57, 2-[3-(1,3-Benzothiazol-2-ylamino)-4-methyl-6,7-dihydro-5H-pyrido[2,3-c]pyridazin-8-yl]-5-[3-[2-fluoro-4-[3-[4-(1-piperidyl)-1-piperidyl]prop-1-ynyl]phenoxy]propyl]thiazole-4-carboxylic acid] | 0.003 nM | 5.54 nM | 0.592 nM
6 | Cc1c(Nc2nc3ccccc3s2)nnc2c1CCCN2c1nc(C(=O)O)c(CCCOc2ccc(C#CCN3CCC4(CC3)CNC(=O)C4)cc2F)s1 [Example 58, 2-[3-(1,3-Benzothiazol-2-ylamino)-4-methyl-6,7-dihydro-5H-pyrido[2,3-c]pyridazin-8-yl]-5-[3-[2-fluoro-4-[3-(3-oxo-2,8-diazaspiro[4.5]decan-8-yl)prop-1-ynyl]phenoxy]propyl]thiazole-4-carboxylic acid] | 0.0048 nM | 6.65 nM | 0.817 nM
7 | Cc1c(Nc2nc3ccccc3s2)nnc2c1CCCN2c1nc(C(=O)O)c(CCCOc2ccc(C#CCN(C)C)cc2Br)s1 [Example 59, 2-{3-[(1,3-Benzothiazol-2-yl)amino]-4-methyl-5H,6H,7H,8H-pyrido[2,3-c]pyridazin-8-yl}-5-(3-{2-bromo-4-[3-(dimethylamino)prop-1-yn-1-yl]phenoxy}propyl)-1,3-thiazole-4-carboxylic acid] | 0.023 nM | 17.3 nM | 3.36 nM
8 | Cc1c(Nc2nc3ccccc3s2)nnc2c1CCCN2c1nc(C(=O)O)c(CCCOc2ccc(N3CCN(C)CC3)cc2F)s1 [Example 60, 2-{3-[(1,3-Benzothiazol-2-yl)amino]-4-methyl-5H,6H,7H,8H-pyrido[2,3-c]pyridazin-8-yl}-5-{3-[2-fluoro-4-(4-methylpiperazin-1-yl)phenoxy]propyl}-1,3-thiazole-4-carboxylic acid] | 0.0089 nM | 8.86 nM | 2.75 nM
9 | Cc1c(Nc2nc3ccccc3s2)nnc2c1CCCN2c1nc(C(=O)O)c(CCCOc2cc3c(cc2F)c(CN(C)C)cn3C)s1 [Example 61, 2-{3-[(1,3-Benzothiazol-2-yl)amino]-4-methyl-5H,6H,7H,8H-pyrido[2,3-c]pyridazin-8-yl}-5-[3-({3-[(dimethylamino)methyl]-5-fluoro-1-methyl-1H-indol-6-yl}oxy)propyl]-1,3-thiazole-4-carboxylic acid] | 0.033 nM | 120 nM | 122 nM
10 | Cc1c(Nc2nc3ccccc3s2)nnc2c1CCCN2c1nc(C(=O)O)c(CCCOc2ccc(CCCCN(C)C)cc2F)s1 [Example 62, 2-{3-[(1,3-Benzothiazol-2-yl)amino]-4-methyl-5H,6H,7H,8H-pyrido[2,3-c]pyridazin-8-yl}-5-(3-{4-[4-(dimethylamino)butyl]-2-fluorophenoxy}propyl)-1,3-thiazole-4-carboxylic acid] | 0.0034 nM | 69 nM | 20.2 nM
11 | CNCCc1ccc(OCCCc2sc(N3CCCc4c3nnc(Nc3nc5ccccc5s3)c4C)nc2C(=O)O)c(F)c1 [Example 64, 2-{3-[(1,3-Benzothiazol-2-yl)amino]-4-methyl-5H,6H,7H,8H-pyrido[2,3-c]pyridazin-8-yl}-5-(3-{2-fluoro-4-[2-(methylamino)ethyl]phenoxy}propyl)-1,3-thiazole-4-carboxylic acid] | 0.0052 nM | 11.8 nM | 30.5 nM
12 | CNCCOC1Cc2c(nnc(Nc3nc4ccccc4s3)c2C)N(c2nc(C(=O)O)c(CCCOc3ccc(C#CCN(C)C)cc3F)s2)C1 (stereo not drawn) [Example 65, 2-{3-[(1,3-Benzothiazol-2-yl)amino]-4-methyl-6-[2-(methylamino)ethoxy]-5H,6H,7H,8H-pyrido[2,3-c]pyridazin-8-yl}-5-(3-{4-[3-(dimethylamino)prop-1-yn-1-yl]-2-fluorophenoxy}propyl)-1,3-thiazole-4-carboxylic acid] | 0.005 nM | 3.98 nM | 26.6 nM
13 | Cc1c(Nc2nc3ccccc3s2)nnc2c1CCCN2c1nc(C(=O)O)c(CCCOc2cc3c(cc2F)CCN(C)C3)s1 [Example 66, 2-{3-[(1,3-Benzothiazol-2-yl)amino]-4-methyl-5H,6H,7H,8H-pyrido[2,3-c]pyridazin-8-yl}-5-{3-[(6-fluoro-2-methyl-1,2,3,4-tetrahydroisoquinolin-7-yl)oxy]propyl}-1,3-thiazole-4-carboxylic acid] | 0.012 nM | 8.22 nM | 2.01 nM
14 | Cc1c(Nc2nc3ccccc3s2)nnc2c1CCCN2c1nc(C(=O)O)c(CCCOc2ccc(CCCN3CCC3)cc2F)s1 [Example 67, 5-[3-[4-[3-(Azetidin-1-yl)propyl]-2-fluoro-phenoxy]propyl]-2-[3-(1,3-benzothiazol-2-ylamino)-4-methyl-6,7-dihydro-5H-pyrido[2,3-c]pyridazin-8-yl]thiazole-4-carboxylic acid] | 0.0032 nM | 14.6 nM | 7.4 nM
15 | Cc1c(Nc2nc3ccccc3s2)nnc2c1CCCN2c1nc(C(=O)O)c(CCCOc2ccc(CCCN3CCN(C)CC3)cc2F)s1 [Example 68, 2-[3-(1,3-Benzothiazol-2-ylamino)-4-methyl-6,7-dihydro-5H-pyrido[2,3-c]pyridazin-8-yl]-5-[3-[2-fluoro-4-[3-(4-methylpiperazin-1-yl)propyl]phenoxy]propyl]thiazole-4-carboxylic acid] | 0.0038 nM | 10.4 nM | 2.91 nM
16 | Cc1c(Nc2nc3ccccc3s2)nnc2c1CCCN2c1nc(C(=O)O)c(CCCOc2ccc(CCCN3CCOCC3)cc2F)s1 [Example 70, 2-[3-(1,3-Benzothiazol-2-ylamino)-4-methyl-6,7-dihydro-5H-pyrido[2,3-c]pyridazin-8-yl]-5-[3-[2-fluoro-4-(3-morpholinopropyl)phenoxy]propyl]thiazole-4-carboxylic acid] | 0.017 nM | 16.9 nM | 3.08 nM
17 | Cc1c(Nc2nc3ccccc3s2)nnc2c1CCCN2c1nc(C(=O)O)c(CCCOc2ccc(CCCN3CCCCC3)cc2F)s1 [Example 71, 2-[3-(1,3-Benzothiazol-2-ylamino)-4-methyl-6,7-dihydro-5H-pyrido[2,3-c]pyridazin-8-yl]-5-[3-[2-fluoro-4-[3-(1-piperidyl)propyl]phenoxy]propyl]thiazole-4-carboxylic acid] | 0.0045 nM | 9.3 nM | 2.11 nM
